Columns and labels:
Type in all cases: cell-based
PIT/PPIR system [1] = target: T1, PIT/PPIR system (Streptomyces coelicolor, UniProt Q9ADN3); test: Dose-response of PI-dependent SEAP expression in CHO-PIT1-SEAP; settings: 48 h
T1 construct: pMF156/pTWIN in CHO cells, PPIR-SEAP or GFP reporter
T1 sequence (Q9ADN3 1-252): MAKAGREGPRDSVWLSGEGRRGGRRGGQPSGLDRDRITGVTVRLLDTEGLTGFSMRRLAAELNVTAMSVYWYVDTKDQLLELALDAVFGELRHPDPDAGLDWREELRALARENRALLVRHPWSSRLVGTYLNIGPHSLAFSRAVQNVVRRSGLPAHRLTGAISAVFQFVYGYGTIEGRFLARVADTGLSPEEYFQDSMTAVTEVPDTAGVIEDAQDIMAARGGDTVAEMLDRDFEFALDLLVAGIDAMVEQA
Experimental: FIG. 2: Dose-response curve for PI-dependent gene expression. The cell line CHO-PIT1-SEAP was grown for 48 h at different PI concentrations (ng/ml). The relative SEAP production is shown over 5 orders of magnitude of PI concentration.
Chinese hamster ovary cells (CHO-K1, ATCC: CCL 61), Baby hamster kidney cells (BHK-21, ATCC: CRL-8544), and HeLa cells (ATCC: CRL-7923) as well as stable cell lines CHO-PIT1, CHO-PIT2, CHO-TWIN195, CHO-TWIN1108 and CHO-PIT1-SEAP were cultured as described before (Fussenegger et al., 1998, Nat. Biotechnol. 16,468-472) in the presence of appropriate antibiotics: G418 400 μg/ml; zeocin 100 μg/ml. Optimized CaPO4 protocols were used for high efficiency transient transfection of all cell lines (id). Transient transfected cells were routinely analyzed after 48 h for GFP or SEAP expression using fluorescence microscopy and p-nitrophenolphosphate-based light absorbance timecourse, respectively, as described before (Fussenegger et al., 1998, Nat. Biotechnol. 16, 468-472; Berger et al., 1988, Gene 66, 1-10 b). For construction of stable CHO-PIT and CHO-TWIN cell lines, CHO-K1 was cotransfected either with pMF156 or pTWIN1 and pSV2neo carrying the G418 resistance gene. CHO-PIT1-SEAP was constructed by cotransfection of pMF172 and pZeoSV2 (Invitrogen). For assessment of dose-response characteristics of PPIR -regulated gene expression, CHO-PIT1-SEAP were cultured at cell densities of 150,000/ml for 48 at various PI concentrations. The mixed populations were cloned using FACS-mediated single-cell-sorting (FACStar^Plus; Beckton Dickinson). Gel retardation assay were performed as described (Salah-Bey et al., 1995, supra) using Pip purified from an overproducing strain of E. coli. Pip (0.02 pmol) was titrated with a range of antibiotic concentrations in a reaction volume of 20 μl. […]
The levels of PPIR -regulated gene expression could be controlled by varying the concentrations of PI used for induction. This was assessed using a stable CHO cell line (CHO-PIT1-SEAP) which expresses PPIR -SEAP (pMF172) and contains also a constitutive PIT expression vector (pMF156). […]

PIT/PPIR system [2] = target: T1, PIT/PPIR system; test: SEAP reporter assay, CHO-TWIN clones transfected with pMF172 (PPIR-SEAP); settings: for SEAP Production (%): 48 h, no inducer = 100
Source text: (§1) pTWIN contains both PIT and tTA in a PSV40 -driven dicistronic configuration. For construction of pTWIN, PIT was first transferred from pMF156 as an EcoRI/HindIII fragment to the corresponding sites of pSBC-1 (EcoRI/HindIII; resulting in pMF167) before the PIT expression unit could be fused to the tTA expression unit contained on pSBC2-tTA (Fussenegger et al., 1997, supra) via SspI/NotI sites. Thus, pTWIN contains the dicistronic PSV40 -PIT-IRES-tTA-pA expression cassette.
(§2) Chinese hamster ovary cells (CHO-K1, ATCC: CCL 61), Baby hamster kidney cells (BHK-21, ATCC: CRL-8544), and HeLa cells (ATCC: CRL-7923) as well as stable cell lines CHO-PIT1, CHO-PIT2, CHO-TWIN195, CHO-TWIN1108 and CHO-PIT1-SEAP were cultured as described before (Fussenegger et al., 1998, Nat. Biotechnol. 16,468-472) in the presence of appropriate antibiotics: G418 400 μg/ml; zeocin 100 μg/ml. Optimized CaPO4 protocols were used for high efficiency transient transfection of all cell lines (id). Transient transfected cells were routinely analyzed after 48 h for GFP or SEAP expression using fluorescence microscopy and p-nitrophenolphosphate-based light absorbance timecourse, respectively, as described before (Fussenegger et al., 1998, Nat. Biotechnol. 16, 468-472; Berger et al., 1988, Gene 66, 1-10 b). For construction of stable CHO-PIT and CHO-TWIN cell lines, CHO-K1 was cotransfected either with pMF156 or pTWIN1 and pSV2neo carrying the G418 resistance gene. CHO-PIT1-SEAP was constructed by cotransfection of pMF172 and pZeoSV2 (Invitrogen). For assessment of dose-response characteristics of PPIR -regulated gene expression, CHO-PIT1-SEAP were cultured at cell densities of 150,000/ml for 48 at various PI concentrations. The mixed populations were cloned using FACS-mediated single-cell-sorting (FACStar^Plus; Beckton Dickinson). Gel retardation assay were performed as described (Salah-Bey et al., 1995, supra) using Pip purified from an overproducing strain of E. coli. Pip (0.02 pmol) was titrated with a range of antibiotic concentrations in a reaction volume of 20 μl. Protein solutions were pre-incubated at room temperature for 15 min. in the absence or presence of PI or its derivative quinupristin in a buffer containing 10 mM Tris (pH 7.8), 10 mM MgCl2, 300 mM NaCl, 2 mM DTT and 10% glycerol. An EcoRI-HindII PPTR fragment (0.02 pmol) containing three Pip binding sites (radiolabelled using α-^32 P)dATP was added and incubated for 15 min. To minimize nonspecific protein binding and increase protein stability, 2 μg of poly dIdC and 20 μg BSA were included in the incubation mix. Protein-DNA complexes were separated on 5% polyacrylamide,TBE gels and visualized by autoradiography.
(§3) CHO-TWIN195 and CHO-TWIN1108 were transfected under identical conditions with the isogenic plasmids containing the SEAP gene under control of the tTA-activated promoter PhCMV*-1 (pMF111) or the PIT-activated promoter PPIR (pMF172). Transfected cells were grown for 48 h in the presence or absence of either antibiotic prior to assay of SEAP activity.
(§4) Table 6: Comparison of the regulation performance of streptogramin- (PI and virginiamycin; VIR) and tetracycline-based gene regulation systems. The two cell clones CHO-TWIN195 and CHO-TWIN1108 containing both pristinamycin- and tetracycline-dependent transactivators were transfected with either the streptogramin-responsive or the TET-responsive SEAP reporter plasmids pMF172 (PPIR -SEAP) and pMF111 (PhCMV*-1 -SEAP), respectively, and the relative SEAP production was assessed. SEAP production values are normalized by SEAP activities under the antibiotic-free, active promoter conditions as follows: pMF172 in CHO-TWIN195:1.7 mU/ml; in CHO-TWIN1108 : 1.8 mU/ml. pMF111 in CHO-TWIN195 : 18.6 mU/ml; in CHO-TWIN1108 : 19.2 mU/ml.
(§5) Table 7: Compatibility of the streptogramin- and tetracycline-based gene regulation systems. Crossregulation of pristinamycin (PI) and the tetracyclines doxycycline (DOX) and tetracycline (TET). […]

[3] = target: T2, TET-responsive system (tTA/PhCMV*-1) (Escherichia coli, UniProt P04483); test: SEAP reporter assay, CHO-TWIN clones transfected with pMF111 (PhCMV*-1-SEAP); settings: CHO-TWIN1108 + pMF111; for SEAP Production (%): crossregulation
T2 construct: expressed in transfected cells; host or cells: CHO-K1 clones CHO-TWIN195 and CHO-TWIN1108 (pTWIN1)
T2 sequence (P04483 whole entry, added parts left off): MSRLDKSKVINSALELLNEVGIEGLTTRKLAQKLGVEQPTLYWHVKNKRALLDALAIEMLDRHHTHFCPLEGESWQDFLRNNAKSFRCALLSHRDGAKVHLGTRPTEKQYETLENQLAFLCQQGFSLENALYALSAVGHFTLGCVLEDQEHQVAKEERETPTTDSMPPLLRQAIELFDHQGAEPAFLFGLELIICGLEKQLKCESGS
Source text: as §1, §2, §3, §4, §5

pristinamycin I [PI]
PI concentration at which PIT/PPIR is fully induced (PIT/PPIR system [1]): < 10 ng/mL | PI concentration at which PIT/PPIR is repressed (lowest SEAP expression) (PIT/PPIR system [1]): > 500 ng/mL | PI concentration window in which gene expression can be adjusted (PIT/PPIR system [1]): 10 to 500 ng/mL | Induction factor (IF; ratio of maximal expression level to antibiotic-repressed expression level) (PIT/PPIR system [2]; CHO-TWIN195 + pMF172): 12 | SEAP Production (%) (PIT/PPIR system [2]; CHO-TWIN195 + pMF172): 8.84 ± 0.01% | Induction factor (IF; ratio of maximal expression level to antibiotic-repressed expression level) (PIT/PPIR system [2]; CHO-TWIN1108 + pMF172): 45 | SEAP Production (%) (PIT/PPIR system [2]; CHO-TWIN1108 + pMF172): 2.2 ± 0.4% | Effect on expression from the TET-responsive system [3]: no effect | SEAP Production (%) ([3]; 2 μg/ml): 94.8 ± 5.3% | SEAP Production (%) ([3]; 10 μg/ml, 2880 min): 92.4 ± 7.9%
